Results as given in PubChem BioAssay AID2305 (GlaxoSmithKline (GSK), 2010).

tested on: P. falciparum 3D7 growth, pLDH absorbance; experiment: P. falciparum 3D7 growth inhibition, dose response, strain 3D7 (AID 2305)

Structure (SMILES) | IC50
COc1ccc(-c2csc(NC(=O)CCC(=O)O)n2)cc1OC | 840 nM
CCCN(CCC)CCCNc1ccc(C(=O)Nc2ccc(OCC)cc2)cc1[N+](=O)[O-] | 990 nM
COc1ccc(OC)c2c1CCN(C)C2Cc1cccc2ccccc12 (stereo not given) | 1050 nM
CC[C@H]1CN2CC[C@@H]1C[C@H]2[C@H](O)c1cc(N2CCC(C)CC2)nc2ccc(OC)cc12 | 170 nM
Cc1cc(N[C@@H](Cc2ccccc2)C(=O)NCc2cccs2)nc(NCCc2ccccn2)n1 | 1280 nM
Cc1cc(C=C(P(=O)(OC(C)C)OC(C)C)P(=O)(OC(C)C)OC(C)C)c2ccccc2c1O | 1080 nM
CN1CCC(Oc2ccc(NC(=O)c3ccc4c(=O)n(Cc5ccccc5)cnc4c3)cc2Cl)CC1 | 950 nM
O=C(NN=Cc1nc2ccccc2[nH]1)c1cccc([N+](=O)[O-])c1 | 630 nM
CN1CCN(c2ccnc3ccc(NC(=O)Nc4cccc5c(C#N)cccc45)cc23)CC1 | 1050 nM
Cc1cc2nc(-c3ccc(/C=C/C(=O)NCCc4ccccc4)cc3)[nH]c2cc1C | 780 nM
CC(C)(C)NS(=O)(=O)c1cc(C(=O)N2CCC(CCN3CCC(C(=O)c4ccc(F)cc4)CC3)(c3cccc(F)c3)CC2)c(Cl)cc1F | 750 nM
Cc1cccc2c(C(=O)NC3CCN(Cc4ccccc4)CC3)cc(-c3cccnc3)nc12 | 1380 nM
Nc1cccc(CNCc2ccc(-c3ccc(-c4nc5ccc(F)cc5[nH]4)s3)cc2)c1 | 990 nM
CCOC(=O)C1=C(C)N=c2sc(=Cc3cc(Cl)ccc3O)c(=O)n2C1c1ccc(OC)cc1 (stereo not given) | 750 nM
Cc1ccc2ccncc2c1N | 700 nM
COc1ccc(Nc2nc(NC3CCN(Cc4ccccc4)CC3)cc(-c3ccncc3)n2)cc1 | 990 nM
CCNc1cc(C(=O)N[C@@H](Cc2ccccc2)[C@H](O)CNC(C)C)cc(N2CC(c3ccccc3)CCS2(=O)=O)c1 (stereo not given in full) | 410 nM
Cc1nc2ccc(NC(=O)Nc3ccnc4ccc(C(F)(F)F)cc34)cc2o1 | 910 nM
CCCc1c(C(=O)Nc2ccc3c(c2)CCN(C2CCC2)CC3)cnn1-c1ccc(Cl)cc1 | 860 nM
Cc1cccc2[nH]c(-c3cccc(-c4cccc(NC(=O)C(C)CN5CCN(C)CC5)c4)c3)nc12 (stereo not given) | 540 nM
NC1=NC(c2ccccc2)N(OCc2ccccc2)C(N)=N1 (stereo not given) | 40 nM
CCOC(=O)NC1=NC(C)(C)N(OCc2ccc(Cl)c(Cl)c2)C(N)=N1 | 40 nM
O=C(Cn1c(SCc2cccc(F)c2F)cc(=O)c2ccccc21)N(CCCn1ccnc1)Cc1ccc(-c2ccc(C(F)(F)F)cc2)cc1 | 1320 nM
Cc1c(Cc2ccccc2)c(=O)oc2c(C)c3c(cc12)CN(CC(C)c1ccccc1)CO3 (stereo not given) | 450 nM

Structure (SMILES) | IC50
O=C(Nc1cccc(-c2cccc(-c3nc4ccccc4[nH]3)c2)c1)Nc1ccc(F)c(F)c1F | 60 nM
Cc1ccc(-c2nc(N3CCN(C(=O)c4ccco4)CC3)c3ccc(Cl)cc3n2)cc1 | 1210 nM
Cc1cc(NC(=O)c2cccs2)ccc1OC1CCN(Cc2ccc(F)cc2)CC1 | 480 nM
CC(C)[C@H](NC(=O)c1ccc(O)c(-c2ccc(Cl)c(Cl)c2)c1)C(=O)NCCN(C)C | 1050 nM
O=C(Nc1ccc(OC2CCN(Cc3ccsc3)CC2)c(Cl)c1)c1ccco1 | 780 nM
CC(C)CNCc1ccc(-c2ccc(CNC3CCN(Cc4ccccc4)CC3)cc2)cc1 | 560 nM
O=[N+]([O-])c1cccc(CNCC2CCN(Cc3ccc4ccccc4c3)CC2)c1 | 880 nM
COc1cccc(Nc2c(C(N)=O)cnc3ccc(-c4ccc(S(C)=O)cc4)cc23)c1 (stereo not given) | 190 nM
CCOC(=O)c1ccc(CC(C)NCC(O)c2cccc(C(F)(F)F)c2)cc1 (stereo not given) | 220 nM
COC(=O)c1cccc(NC(=O)NC2CCN(c3ccnc(Nc4cc(OC)c(OC)c(OC)c4)n3)C2)c1 (stereo not given) | 510 nM
NCc1ccc(-c2ccccc2CNC2CCN(Cc3ccccc3)CC2)cc1 | 770 nM
CCCN(CCC)CCCNc1ccc(C(=O)Nc2ccc(C)c(F)c2)cc1[N+](=O)[O-] | 540 nM
Cn1ncc2c3c(CCN4CCC(NCc5cc6c(cn5)OCC6)CC4)c(Cl)cnc3ccc21 | 880 nM
COc1cc(Nc2nc(N)n(C(=O)c3ccc4c(c3)OCO4)n2)cc(OC)c1OC | 1130 nM
Fc1ccc(CN2CCN(c3ncnc4cc(-c5ccccc5)sc34)CC2)cc1 | 1020 nM
CCCCc1cc(NCC)nc(Nc2cccc(OC)c2)n1 | 920 nM
CN1CCC(NCc2cccc(-c3ccc(S(=O)(=O)NCCN4CCCC4)c(F)c3)c2)CC1 | 1010 nM
COc1ccc(NC(=O)CCNc2cc(C)nc(NCCc3ccc(F)cc3)n2)cc1 | 850 nM
CN1CC=C(c2c[nH]c3ccc(C(=O)c4nccs4)cc23)CC1 | 240 nM
CCC[C@@H]([C@@H](CC(C)C)C(=O)N[C@@H](CCCCNC(=O)c1cccc(OC)c1)C(=O)Nc1nccs1)N(O)C=O | 100 nM
COc1ccc(CNC2Cc3ccccc3C2)cc1-c1ccc(S(=O)(=O)NCCN2CCCC2)c(F)c1 | 720 nM
Cc1cc(-c2ccc3c(c2)CCN(CCC2CCC(NC(=O)/C=C/c4cccc(Cl)c4)CC2)CC3)on1 (stereo not given) | 590 nM
CN1CCN(c2cc(NC(=O)c3ccc(-c4ccc(Cl)cc4)cc3)ccc2Cl)CC1 | 610 nM
O=C(Nc1ccc(-c2nc3ccccc3[nH]2)cc1)c1ccc(Cl)s1 | 590 nM

Structure (SMILES) | IC50
COc1ccc2ncc(F)c(CCN3C[C@H](CNCc4cc(F)c5c(c4)NC(=O)CO5)[C@H](O)C3)c2n1 | 670 nM
COc1cc2nc(N3CCC(CNC(=O)c4ccc(-c5ccc(-c6noc(C)n6)cc5)cc4)CC3)nc(N)c2cc1OC | 140 nM
CCN(CCN(C)C)Cc1ccc(-c2ccc(NS(=O)(=O)c3cccc4cccnc34)cc2)cc1 | 930 nM
COc1cc(NCCCNCc2cn(S(=O)(=O)c3ccccc3)c3ccccc23)nc2ccccc12 | 390 nM
C/C=C1/CN2CC[C@H]1C[C@H]2[C@H](O)c1ccnc2ccc(O)cc12 | 490 nM
Cc1ccc2nc(NC#N)[nH]c2c1 | 1150 nM
COc1cc(/C=C/C(=O)NCC(CCNc2cc(=O)c3ccccc3[nH]2)NCc2cc(Br)cc(Br)c2)cc(OC)c1 (stereo not given) | 910 nM
CN(C)C(=NCCCCCCN=C(NC(N)=NCc1ccc(Cl)c(Cl)c1)N(C)C)NC(N)=NCc1ccc(Cl)c(Cl)c1 | 300 nM
O=C(/C=C/c1ccc(Cl)c(Cl)c1)NC1CCC(CN2CCC(c3nc4ccccc4s3)CC2)CC1 (stereo not given) | 1020 nM
CC(C)Cn1c(Sc2ccc(C#N)c([N+](=O)[O-])c2)nnc1-c1cccc(Cl)c1 | 300 nM
COc1ccc(Nc2nc(NN=Cc3ccc(-c4ccc([N+](=O)[O-])cc4)o3)nc(Nc3ccccc3)n2)cc1 | 760 nM
Cc1ccc(O)c(-c2cc(C(=O)Nc3ccc(S(=O)(=O)N4CCCC(C)C4)cc3)[nH]n2)c1 (stereo not given) | 710 nM
O=C(/C=C/c1ccc(Cl)c(Cl)c1)NCCCCCN1CCC(CCNC(=O)c2snnc2-c2ccccc2)CC1 | 820 nM
COc1ccc2c(NN=Cc3cccc(C)n3)cc(-c3ccccc3)nc2c1 | 750 nM
Cn1cc(CN2CCCC(COC(c3ccccc3)c3ccccc3)C2)cn1 (stereo not given) | 770 nM
O=[N+]([O-])c1cccc(C=NNc2ccnc3ccc(C(F)(F)F)cc23)c1 | 1090 nM
CCCCCCN1CCC(NCc2cccc3ccccc23)CC1 | 810 nM
Clc1ccccc1C=NNc1ccnc2ccccc12 | 850 nM
CCCCCCN1CCCN(Cc2ccc(C(=O)Nc3ccc(C(C)(C)C)cc3)cc2)CC1 | 740 nM
Cc1ccc(CC(C)NC[C@H](O)c2cccc(Cl)c2)cc1 (stereo not given in full) | 860 nM
COc1ccc2nccc([C@@H](O)CN3CCC(NC(=O)C(c4cc5ccccc5o4)N4CCC(Cc5ccccc5)CC4)CC3)c2c1 (stereo not given in full) | 250 nM
COc1cc(-c2cc(-c3ccc(OCCN(C)C)cc3)[nH]c2-c2ccncc2)ccc1Cl | 710 nM
